Measurements reported in patent US12398196B2, “Fused polypeptide with multifunctional activities and use thereof” (NANJING ANJI BIOLOGICAL TECHNOLOGY CO., LTD., priority 2019, dated 2025).
Ends that are not written are not given here.

How the values were obtained:
[1] = system: SD rats with bleomycin-induced pulmonary fibrosis; experiment: Bleomycin-induced pulmonary fibrosis animal model; format: in vivo
Procedure: Source and strain: clean SD rats, provided by Comparative Medicine Center of Yangzhou University (laboratory animal production license: SCXK (Su) 2012-0004); Certification of Using of Laboratory Animal: SYXK (Su) 2012-0035).
SD rats were anesthetized by intraperitoneal injection of 1 mL/100 g 4% chloral hydrate. After anesthesia, the rats were fixed and their necks were disinfected by using cotton with 75% alcohol. The skin of the rat neck was longitudinally cut with scissors, and the fascia and muscle were longitudinally bluntly torn with tweezers to expose the trachea. A syringe was inserted into the trachea to inject 5 mg/kg bleomycin, while a blank group was injected with an equal amount of normal saline. Then a rat plate was quickly erected and rotated, the rats' breathing was observed, the neck wound was sterilized after rotation and was sewn, and an amoxicillin anti-inflammatory drug was sprinkled on the suture. After the operation, the rats were put back into a dry and clean cage for resting, waiting was performed for awakening. The rats were awakened after about 1-2 hours, and then fed normally. On the 7th day after modeling, modeling group animals randomly fell into a model group, a Nintedanib positive drug group, polypeptide I, II, III and IV dosage groups, and a normal control group, and the groups were administered separately for an administration cycle of 14 days. Living situations of rats were observed every day and their weights were weighed. After administration for 14 days, the eyeballs were removed and blood was taken, the rats were dissected, and lungs were taken. The content of TGF-β1 in serum and the content of HYP in lung tissues were detected.

[2] = system: SD rats with CCl4-induced hepatic fibrosis; experiment: CCl4-induced hepatic fibrosis animal model; format: in vivo; settings: CCl4 8 weeks, polypeptides 6 mg/kg s.c. once a day, colchicine intragastric 5 times/week
Procedure: Source and strain: SPF level, SD rats, provided by Shanghai Xipuer-Bikai laboratory Animal Co., Ltd. (laboratory animal license: SCXK (hu) 2013-0016)
There were 10 rats in each group. Modeling was performed on the rats. Each group other than the blank group was injected with 40% CCl4 intraperitoneally twice a week, the first injection was performed at 3 mL/kg, and then administration was performed at 2 mL/kg. Administration was performed for 8 weeks, and a total of 16 injections were provided to induce hepatic fibrosis. After the intraperitoneal injection of CCl4 for the fourth time, polypeptide therapy was started on the next day, and administration was performed by subcutaneous injection once a day until the end of induction. After the intraperitoneal injection of CCl4 for the fourth time, colchicine was administrated on the next day at 200 μg/kg, 5 times a week, and intragastric administration therapy was implemented. After induction for 8 weeks, the administration was stopped. On the second day, the SD rats were dissected, blood was taken, and the liver tissue was taken and stored in a refrigerator at −80° C. for later use. The expressions of AST and ALT in serum and HYP in the rat liver tissue were detected.

[3] = system: SD rats with renal fibrosis; experiment: Renal fibrosis model (ureter ligation); format: in vivo; settings: 6 mg/kg s.c. twice a day, 14 days
Procedure: Clean grade male SD rats, purchased from Nanjing Qinglong Mountain Animal Farm, and weighed 180-200 g at the time of purchase, 190-210 g at the beginning of modeling, and 180-200 g at the beginning of administration.
A renal fibrosis animal model was established. SD rats were anesthetized with 4% chloral hydrate, injected with 1 mL/100 g intraperitoneally, fixed to an operation board, and sterilized in an operation area for later use. […] Muscular layers and abdominal walls were sewed layer by layer, the suture was disinfected with alcohol. After SD rats woke up, the rats were put into a cage for feeding. In the blank group, ureter was not ligated, and other steps were the same.
Then, the animals fell into a blank group, a model group, and polypeptide administration groups, with 10 animals in each group, and the administration was started on the second day after the operation, and was performed for 14 days. After administration for 14 days, blood was taken and supernatant was taken to detect the content of TGF-β1 in serum.

[4] = system: mice with myocardial fibrosis; experiment: Isoprenaline-induced myocardial fibrosis model; format: in vivo; settings: BALB/c mice, isoprenaline 5 mg/kg 7 days; 12 mg/kg s.c. twice a day
Procedure: 1. Experimental Mice: 10-Week-Old Male BALB/c Mice (with an Average Weight of 20 g).
In the model group, the experimental mice were injected with isoprenaline (ISO) (5 mg/kg) subcutaneously on the back of the mice every day for 7 consecutive days, and the mice were injected with normal saline subcutaneously (200 μL/mouse) every day. In the blank group, normal saline was injected subcutaneously (200 μL/mouse) every day. While a model was made, polypeptide drugs were administrated for treatment by subcutaneous injection. After the 8th day, blood was taken and was centrifuged, the supernatant was taken, and the content of TGF-β1 in serum was detected.

[5] = system: mice with skin fibrosis; experiment: Bleomycin-induced skin fibrosis model; format: in vivo, C57/BL black mice; settings: C57/BL mice, bleomycin s.c. 28 days; 10 mg/kg s.c. twice a day
Procedure: Male C57/BL black mice aged 6-8 weeks, purchased from Nanjing Qinglong Mountain Animal Farm. Bleomycin (10 μg/mL) was injected subcutaneously every day for 28 days to form skin fibrosis. During the modeling period, the administration groups were given polypeptide drugs twice a day for treatment. After modeling, the mice were killed on the next day, and the skin tissue of the mouse back was taken to detect the content of HYP in the skin tissue. [table]

[6] = system: Streptococcus pneumoniae; experiment: Mouse pneumonia model, bacterial pneumonia; format: in vivo, BALB/C mice; design: unit not given here; settings: nasal drip, average values + standard deviation
Excerpt: (§1) A mouse pneumonia model was successfully established by using a nasal drip method. BALB/C mice with a body weight of 18-24 g were selected, and then anesthetized with ether on day 0, day 1 and day 2, respectively, prepared Streptococcus pneumoniae bacteria solution, adenovirus concentrated solution, Mycoplasma pneumoniae, Chlamydia pneumoniae, protozoa and pneumonia fungi were slowly dropped into the nasal cavity of the mice, so that the bacteria solutions entered the trachea and bronchi, and the bacteria solutions were prevented from flowing into the esophagus during the operation to avoid inactivation of the bacteria solutions, so that the mouse pneumonia model was established. After the model was successfully established, the polypeptide according to the present disclosure was administered, as shown in FIG. 9 and Table 7. […] The experimental results are represented on the basis of average values+standard deviation.

[7] = system: adenovirus; experiment: Mouse pneumonia model, viral pneumonia; format: in vivo, BALB/C mice; design: unit not given here; settings: nasal drip, average values + standard deviation
Excerpt: as §1

[8] = system: Mycoplasma pneumoniae; experiment: Mouse pneumonia model, mycoplasma pneumonia; format: in vivo, BALB/C mice; design: unit not given here; settings: nasal drip, average values + standard deviation
Excerpt: as §1

[9] = system: Chlamydia pneumoniae; experiment: Mouse pneumonia model, chlamydia pneumonia; format: in vivo, BALB/C mice; design: unit not given here; settings: nasal drip, average values + standard deviation
Excerpt: as §1

[10] = system: protozoa; experiment: Mouse pneumonia model, protozoal pneumonia; format: in vivo, BALB/C mice; design: unit not given here; settings: nasal drip, average values + standard deviation
Excerpt: as §1

[11] = system: pneumonia fungi; experiment: Mouse pneumonia model, fungal pneumonia; format: in vivo, BALB/C mice; design: unit not given here; settings: nasal drip, average values + standard deviation
Excerpt: as §1

[12] = system: multiple pulmonary infections; experiment: Mouse pneumonia model, pneumonia caused by pulmonary infections; format: in vivo, BALB/C mice; design: unit not given here; settings: nasal drip, average values + standard deviation
Excerpt: as §1

[13] = bleomycin-induced pulmonary fibrosis, polypeptides 10 mg/kg s.c. twice a day, Nintedanib 25 mg/kg intragastric once a day, 14 days

Question: What does the source list for “PRCYRGEGGGGIVRRADRAAVPGGGGRGD [Polypeptide II]”?
Answer: Survival rate (%) ([1]; bleomycin 5 mg/kg intratracheal, polypeptides 10 mg/kg subcutaneous twice a day for 14 days, positive drug Nintedanib intragastric once a day, model group 57.1%): 78.6%; reduction of HYP in lung tissues compared with the positive drug ([1]; bleomycin-induced pulmonary fibrosis, comparison with Nintedanib): better effects than the positive drug; content of HYP in lung tissues, difference from model group [1, 13]: highly significantly different from the model group (*** P<0.001); content of TGF-β1 in serum, difference from model group [1, 13]: highly significantly different from the model group (*** P<0.001); content of AST in serum, difference from model group [2]: highly significantly different from the model group (*** P<0.001); content of HYP in the liver tissue, difference from model group [2]: highly significantly different from the model group (*** P<0.001); content of TGF-β1 in serum, difference from model group [3]: highly significantly different from the model group (*** P<0.001); content of TGF-β1 in serum, difference from model group [4]: highly significantly different from the model group (*P<0.05); content of HYP in the skin tissue, difference from model group [5]: highly significantly different from the model group (*P<0.05); Inhibitory effect on pulmonary infections: Bacterial pneumonia [6]: 41.25 ± 9.48; Inhibitory effect on pulmonary infections: Viral pneumonia [7]: 50.27 ± 8.08; Inhibitory effect on pulmonary infections: Mycoplasma pneumonia [8]: 45.69 ± 5.72; Inhibitory effect on pulmonary infections: Chlamydia pneumonia [9]: 45.81 ± 5.21; Inhibitory effect on pulmonary infections: Protozoal pneumonia [10]: 63.60 ± 6.16; Inhibitory effect on pulmonary infections: Fungal pneumonia [11]: 60.32 ± 3.07; Inhibitory effect on pulmonary infections: Pneumonia caused by pulmonary infections [12]: 63.15 ± 5.87
